Experimental data as given in ChEMBL document CHEMBL5038624, “Construction and activity evaluation of novel dual-target (SE/CYP51) anti-fungal agents containing amide naphthyl structure” (Eur J Med Chem, 2022).
In brackets after ≈: the same amount, converted by molar mass. Activity calls are given as the source filed them. The rule behind the calls is not given here.

Legend:
[1] = Toxicity in mouse infected with Candida albicans ATCC SC5314 assessed as effect on heart at 4 mg/kg,ip administrated every 2 days for 14 days by hematoxylin-eosin staining based assay; type: organism-based; conditions: in vivo, 336 h, time 14 day
[2] = tested on: Candida albicans; experiment: Antifungal activity against Candida albicans strain 17 assessed as reduction in fungal growth incubated for 72 hrs by CLSI protocol based broth microdilution method; type: functional
[3] = tested on: Candida albicans; experiment: Antifungal activity against Candida albicans ATCC SC5314 assessed as disappearance of fungal cell boundaries incubated for 96 hrs by TEM analysis; type: functional, organism-based
[4] = tested on: Candida albicans; experiment: Inhibition of SE/CYP51 in Candida albicans ATCC SC5314 assessed as lanosterol level incubated for 48 hrs by LC/MS analysis; design: scale not given: the % may be the effect or the level left
[5] = tested on: Nakaseomyces glabratus; experiment: Antifungal activity against Candida glabrata ATCC 0001 assessed as reduction in fungal growth incubated for 72 hrs by CLSI protocol based broth microdilution method; type: functional
[6] = tested on: Candida tropicalis; experiment: Antifungal activity against Candida tropicalis ATCC 1369 assessed as reduction in fungal growth incubated for 72 hrs by CLSI protocol based broth microdilution method; type: functional
[7] = tested on: Candida albicans; experiment: Antifungal activity against Candida albicans strain CaR assessed as reduction in fungal growth incubated for 72 hrs by CLSI protocol based broth microdilution method; type: functional
[8] = tested on: Candida albicans; experiment: Antifungal activity against Candida albicans ATCC SC5314 infected in mouse assessed as decrease in fungal infection at 4 mg/kg,ip administrated every 2 days for 14 days; type: functional, organism-based; conditions: time 14.0 day
[9] = tested on: Mus musculus; experiment: Antifungal activity against Candida albicans ATCC SC5314 infected in mouse assessed as increase in body weight at 4 mg/kg,ip administrated every 2 days for 14 days; type: functional, organism-based; conditions: time 14.0 day
[10] = tested on: Candida albicans; experiment: Antifungal activity against Candida albicans strain 632 assessed as reduction in fungal growth incubated for 72 hrs by CLSI protocol based broth microdilution method; type: functional
[11] = tested on: Candida albicans; experiment: Antifungal activity against Candida albicans ATCC SC5314 assessed as decrease in fungal cell density by fluorescence microscopy; type: functional, organism-based
[12] = Toxicity in mouse infected with Candida albicans ATCC SC5314 assessed as effect on kidney at 4 mg/kg,ip administrated every 2 days for 14 days by hematoxylin-eosin staining based assay; type: organism-based; conditions: in vivo, 336 h, time 14 day
[13] = Toxicity in mouse infected with Candida albicans ATCC SC5314 assessed as effect on lung at 4 mg/kg,ip administrated every 2 days for 14 days by hematoxylin-eosin staining based assay; type: organism-based; conditions: in vivo, 336 h, time 14 day
[14] = tested on: Pichia kudriavzevii; experiment: Antifungal activity against Candida krusei ATCC 6258 assessed as reduction in fungal growth incubated for 72 hrs by CLSI protocol based broth microdilution method; type: functional
[15] = tested on: Candida albicans; experiment: Induction of apoptosis against Candida albicans ATCC SC5314 assessed as mild apoptotic cells measured after 48 hrs by Annexin V-FITC/propidium iodide staining based flow cytometry (Rvb =0.29 %); type: functional
[16] = tested on: Candida albicans; experiment: Inhibition of SE/CYP51 in Candida albicans ATCC SC5314 assessed as squalene level incubated for 48 hrs by LC/MS analysis; design: scale not given: the % may be the effect or the level left
[17] = tested on: Candida albicans; experiment: Inhibition of SE/CYP51 in Candida albicans ATCC SC5314 assessed as eburicol level incubated for 48 hrs by LC/MS analysis; design: scale not given: the % may be the effect or the level left
[18] = Toxicity in mouse assessed as effect on blood urea nitrogen level; conditions: in vivo
[19] = tested on: Candida albicans; experiment: Induction of apoptosis against Candida albicans ATCC SC5314 assessed as late apoptotic cells measured after 48 hrs by Annexin V-FITC/propidium iodide staining based flow cytometry (reference value: 0.71 %); type: functional
[20] = tested on: Candida albicans; experiment: Inhibition of SE/CYP51 in Candida albicans ATCC SC5314 assessed as unknown sterol level incubated for 48 hrs by LC/MS analysis; design: scale not given: the % may be the effect or the level left
[21] = molecular target: Lanosterol 14-alpha demethylase (Candida albicans (strain SC5314 / ATCC MYA-2876) (Yeast), UniProt P10613); experiment: Inhibition of CYP51 in Candida albicans ATCC SC5314 measured after 30 mins by HPLC analysis
Lanosterol 14-alpha demethylase, sequence (P10613 whole entry): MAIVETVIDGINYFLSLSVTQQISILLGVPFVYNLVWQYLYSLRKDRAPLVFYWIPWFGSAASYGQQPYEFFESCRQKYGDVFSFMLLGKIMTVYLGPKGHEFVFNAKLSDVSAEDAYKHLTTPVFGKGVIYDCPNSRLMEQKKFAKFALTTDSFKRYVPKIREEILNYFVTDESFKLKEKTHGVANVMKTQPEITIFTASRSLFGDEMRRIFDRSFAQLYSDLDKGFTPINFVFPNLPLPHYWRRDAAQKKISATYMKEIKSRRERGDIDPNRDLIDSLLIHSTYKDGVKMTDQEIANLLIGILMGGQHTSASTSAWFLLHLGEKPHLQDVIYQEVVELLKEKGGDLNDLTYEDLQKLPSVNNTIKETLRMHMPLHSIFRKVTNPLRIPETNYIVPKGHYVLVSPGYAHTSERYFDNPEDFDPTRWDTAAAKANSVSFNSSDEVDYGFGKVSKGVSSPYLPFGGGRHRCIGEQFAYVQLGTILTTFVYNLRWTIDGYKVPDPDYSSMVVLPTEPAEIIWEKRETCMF

[22] = tested on: Candida albicans; experiment: Antifungal activity against Candida albicans strain 901 assessed as reduction in fungal growth incubated for 72 hrs by CLSI protocol based broth microdilution method; type: functional
[23] = tested on: Candida albicans; experiment: Antifungal activity against Candida albicans SC5314 assessed as reduction in fungal growth incubated for 72 hrs by CLSI protocol based broth microdilution method; type: functional
[24] = tested on: Aspergillus fumigatus; experiment: Antifungal activity against Aspergillus fumigatus KM8001 assessed as reduction in fungal growth incubated for 72 hrs by CLSI protocol based broth microdilution method; type: functional
[25] = tested on: Candida albicans; experiment: Antifungal activity against Candida albicans ATCC SC5314 infected in mouse assessed as reduction on endothelial fungal infection at 4 mg/kg,ip administrated every 2 days for 14 days by hematoxylin-eosin staining based assay; type: functional, organism-based; conditions: time 14.0 day
[26] = tested on: Candida albicans; experiment: Antifungal activity against Candida albicans ATCC SC5314 assessed as irregular cell structure incubated for 48 hrs by TEM analysis; type: functional, organism-based
[27] = tested on: Candida albicans; experiment: Induction of apoptosis against Candida albicans ATCC SC5314 assessed as necrotic cells measured after 48 hrs by Annexin V-FITC/propidium iodide staining based flow cytometry (reference value: 18.22 %); type: functional
[28] = Toxicity in mouse assessed as effect on alanine transaminase level; conditions: in vivo
[29] = Toxicity in mouse infected with Candida albicans ATCC SC5314 assessed as effect on spleen at 4 mg/kg,ip administrated every 2 days for 14 days by hematoxylin-eosin staining based assay; type: organism-based; conditions: in vivo, 336 h, time 14 day
[30] = Toxicity in mouse assessed as effect on aspartate transaminase level; conditions: in vivo
[31] = tested on: Candida albicans; experiment: Induction of apoptosis against Candida albicans ATCC SC5314 assessed as viable cells measured after 48 hrs by Annexin V-FITC/propidium iodide staining based flow cytometry (reference value: 80.78 %); type: functional
[32] = tested on: Candida albicans; experiment: Antifungal activity against Candida albicans strain 904 assessed as reduction in fungal growth incubated for 72 hrs by CLSI protocol based broth microdilution method; type: functional
[33] = Inhibition of SE in Candida albicans ATCC SC5314 measured after 30 mins by HPLC analysis
[34] = Toxicity in mouse infected with Candida albicans ATCC SC5314 assessed as effect on liver at 4 mg/kg,ip administrated every 2 days for 14 days by hematoxylin-eosin staining based assay; type: organism-based; conditions: in vivo, 336 h, time 14 day
[35] = tested on: Candida albicans; experiment: Antifungal activity against Candida albicans ATCC SC5314 assessed as irregular cell structure incubated for 72 hrs by TEM analysis; type: functional, organism-based
[36] = tested on: Candida albicans; experiment: Inhibition of SE/CYP51 in Candida albicans ATCC SC5314 assessed as ergosterol level incubated for 48 hrs by LC/MS analysis; design: scale not given: the % may be the effect or the level left

Structure (SMILES): O=C(/C=C/c1cccc2ccccc12)NC(Cn1cncn1)c1ccccc1 (stereo unspecified)
- Activity [1]: Non-Toxic
- MIC50 [2]: 2 µg/mL (≈ 5.43 µM)
- Activity [3]: Active
- Activity [4]: 11.4%
- MIC50 [5]: 0.25 µg/mL (≈ 0.679 µM)
- MIC50 [6]: 0.125 µg/mL (≈ 0.339 µM)
- MIC50 [7]: 2 µg/mL (≈ 5.43 µM)
- Activity [8]: Active
- Activity [9]: Active
- MIC50 [10]: 2 µg/mL (≈ 5.43 µM)
- Activity [11]: Active
- Activity [12]: Non-Toxic
- Activity [13]: Non-Toxic
- MIC50 [14]: 0.25 µg/mL (≈ 0.679 µM)
- Activity [15]: 0.26%
- Activity [16]: 29.5%
- Activity [17]: 32.9%
- Activity [18]: 6.1 mmol/L
- Activity [19]: 1.24%
- Activity [20]: 7%
- IC50 [21]: 209 nM
- MIC50 [22]: 1 µg/mL (≈ 2.71 µM)
- MIC50 [23]: 0.125 µg/mL (≈ 0.339 µM)
- MIC50 [24]: 2 µg/mL (≈ 5.43 µM)
- Activity [25]: Active
- Activity [26]: Active
- Activity [27]: 46.23%
- Activity [28]: 101.6 IU/L
- Activity [29]: Non-Toxic
- Activity [30]: 118 IU/L
- Activity [31]: 52.27%
- MIC50 [32]: 2 µg/mL (≈ 5.43 µM)
- IC50 [33]: 930 nM
- Activity [34]: Non-Toxic
- Activity [35]: Active
- Activity [36]: 19.2%
